In patent US9266814B2, “Use of nitrooxy organic molecules in feed for reducing methane emission in ruminants, and/or to improve ruminant performance” (DSM IP ASSETS B.V., priority 2010, dated 2016):
Values joined by “and” are separate entries in the source; they are usually repeats but may differ in a detail not shown here. Identical values can stand only once. Like-named read-outs stand apart in the source and are kept apart here. Marks after values point to notes of the source that are not given here.

Legend:
[1] = system: methanogenesis in rumen liquor; assay: In vitro test for methane production (modified Hohenheim Forage value Test); assay type: cell-based; conditions: for inhibition at 0.5 % / inhibition at 2 % / inhibition at 0.005 % / inhibition at 0.01 % / inhibition at 0.05 % / inhibition at 0.1 % / inhibition at 1 %: read-out: effect on methanogenesis (%)
[2] = system: methane emissions by sheep; assay type: in vivo
protozoa (18S rRNA) = assay type: in vivo, sheep
[3] = system: methanogenic archaea (mcrA gene); assay type: in vivo, sheep
[4] = system: total bacteria (16S rRNA); assay type: in vivo, sheep
[5] = system: volatile fatty acid profile and ammonia N concentration in the rumen; assay type: in vivo, sheep
[6] = system: methane production of dairy cows; design: species or system Holstein X Friesian dairy cows; conditions: in vivo
[7] = sheep, 100 mg per animal and day via ruminal cannula, day 14
[8] = sheep, 100 mg per animal and day via ruminal cannula, day 29
[9] = sheep, 100 mg per animal and day via ruminal cannula, day 30
[10] = sheep, 100 mg per animal and day via ruminal cannula, days 29-30 pooled
[11] = rumen of sheep, 100 mg per animal and day
[12] = rumen of sheep, 18S rRNA qPCR, 100 mg per animal and day
[13] = rumen of sheep, mcrA gene qPCR, 100 mg per animal and day
[14] = rumen of sheep, 16S rRNA qPCR, 100 mg per animal and day
[15] = rumen of sheep, samples of days 29 and 30, 100 mg per animal and day
[16] = 8 h, comparative example, 0.1% DM, average of two experiments

O=[N+]([O-])OCC(CCc1ccccc1)O[N+](=O)[O-] (racemic) [Compound 2, rac-4-Phenylbutane-1,2-diyl dinitrate]
inhibition at 0.5 % ([1]; 8 h): 4% | inhibition at 2 % ([1]; 8 h): 10%

CCOC(=O)CCO[N+](=O)[O-] [Additive 1, ethyl-3-nitrooxypropionate, reference compound]
CH4 l, day [2, 7]: 21.9 l, day | CH4 l/kg intake [2, 7]: 25.6 l/kg intake | CH4 l, day [2, 8]: 20.9 l, day | CH4 l/kg intake [2, 8]: 21.7 l/kg intake | CH4 l, day [2, 9]: 21.8 l, day | CH4 l/kg intake [2, 9]: 23.2 l/kg intake | CH4 l, day [2, 10]: 21.5 l, day | CH4 l/kg intake [2, 10]: 22.6 l/kg intake | reduction of methane emissions (liters per kg of fresh matter intake) against the control ([2]; sheep, 100 mg per animal and day, day 14): 14% | Total protozoa ΔCt (relative abundance in relation to total bacteria) (protozoa (18S rRNA); [11]): 1.58 | Total protozoa (protozoa (18S rRNA); [12]): 1.87 * 10^10 copy gene numbers/g fresh matter | Total protozoa log 10 (protozoa (18S rRNA); [12]): 10.2 log copy gene numbers/g fresh matter | Archaea ΔCt (relative abundance in relation to total bacteria) [3, 11]: 0.022 | Archaea [3, 13]: 2.86 * 10^8 copy gene numbers/g fresh matter | Archaea log 10 [3, 13]: 8.45 log copy gene numbers/g fresh matter | Total bacteria [4, 14]: 9.08 * 10^10 copy gene numbers/g fresh matter | Total bacteria log 10 [4, 14]: 10.9 log copy gene numbers/g fresh matter | Acetate [5, 15]: 67.5^b mol/100 mol | Butirate [5, 15]: 2.05 mol/100 mol | C2/C3 (acetate to propionate ratio) [5, 15]: 4.09^a | Propionate [5, 15]: 16.6^a mol/100 mol | Total (volatile fatty acids) [5, 15]: 58.2 | Valerate [5, 15]: 1.94 mol/100 mol | iso-butirate [5, 15]: 10.1 mol/100 mol | iso-valerate [5, 15]: 1.79 mol/100 mol

O=[N+]([O-])OCCCO [Compound 1, 3-Nitrooxypropanol]
CH4 l, day ([2]; in vivo): 18.3 l, day and 19.7 l, day and 19.1 l, day and 20.0 l, day | CH4 l/kg intake ([2]; in vivo): 22.5 and 19.6 and 25.6 and 23.1 | reduction of methane emissions (liters per kg of fresh matter intake) against the control ([2]; in vivo): 23% | Total protozoa (protozoa (18S rRNA); in vivo): 2.51 * 10^10 copy gene numbers/g fresh matter | Total protozoa log 10 (protozoa (18S rRNA); in vivo): 10.2 log copy gene numbers/g fresh matter | Total protozoa ΔCt (relative abundance in relation to total bacteria) (protozoa (18S rRNA); in vivo): 1.55 | Archaea ([3]; in vivo): 2.86 * 10^8 copy gene numbers/g fresh matter | Archaea log 10 ([3]; in vivo): 8.34 log copy gene numbers/g fresh matter | Archaea ΔCt (relative abundance in relation to total bacteria) ([3]; in vivo): 0.020 | CH4, L/d [6]: 555 L/day and 536 L/day | CH4, L/kg DMI [6]: 29.9 L/kg DMI and 29.2 L/kg DMI | CH4, g/d [6]: 398 g/day and 384 g/day | Total bacteria ([4]; in vivo): 9.74 * 10^10 copy gene numbers/g fresh matter | Total bacteria log 10 ([4]; in vivo): 11.0 log copy gene numbers/g fresh matter | Acetate ([5]; in vivo): 64.5^a mol/100 mol | Butirate ([5]; in vivo): 2.11 mol/100 mol | C2/C3 (acetate to propionate ratio) ([5]; in vivo): 3.89^a | Propionate ([5]; in vivo): 17.5^b mol/100 mol | Total (volatile fatty acids) ([5]; in vivo): 57.1 | Valerate ([5]; in vivo): 1.82 mol/100 mol | iso-valerate ([5]; in vivo): 1.82 mol/100 mol | inhibition at 0.005 % ([1]; 8 h): 20% | inhibition at 0.01 % ([1]; 8 h): 79% | inhibition at 0.05 % ([1]; 8 h): 100% | inhibition at 0.1 % ([1]; 8 h): 100% | inhibition at 0.5 % ([1]; 8 h): 100% | inhibition at 2 % ([1]; 8 h): 100%

CCNS(=O)(=O)CCCO[N+](=O)[O-] [Compound 4, N-Ethyl-3-nitrooxy-propionic sulfonyl amide]
inhibition at 0.05 % ([1]; 8 h): 10% | inhibition at 0.1 % ([1]; 8 h): 24% | inhibition at 0.5 % ([1]; 8 h): 99% | inhibition at 2 % ([1]; 8 h): 99%

CCC(=O)OCCCO[N+](=O)[O-] [Compound 7, 3-Nitrooxy-propyl propionate]
inhibition at 0.005 % ([1]; 8 h): 6% | inhibition at 0.01 % ([1]; 8 h): 21% | inhibition at 0.05 % ([1]; 8 h): 100% | inhibition at 0.1 % ([1]; 8 h): 100%

O=C(OCCCO[N+](=O)[O-])c1ccccc1 [Compound 11, 3-Nitrooxy-propyl benzoate]
inhibition at 0.01 % ([1]; 8 h): 11% | inhibition at 0.1 % ([1]; 8 h): 99% | inhibition at 1 % ([1]; 8 h): 99%

CCCCCC(=O)OCCCO[N+](=O)[O-] [Compound 12, 3-Nitrooxy-propyl hexanoate]
inhibition at 0.01 % ([1]; 8 h): 42% | inhibition at 0.1 % ([1]; 8 h): 99% | inhibition at 1 % ([1]; 8 h): 98%

O=[N+]([O-])OCc1ccccc1 [Compound 14, Benzylnitrate]
inhibition at 0.05 % ([1]; 8 h): 3% | inhibition at 0.1 % ([1]; 8 h): 37% | inhibition at 0.5 % ([1]; 8 h): 100% | inhibition at 2 % ([1]; 8 h): 100%

O=C(NCCO[N+](=O)[O-])c1cccnc1 [Compound 16, N-[2-(Nitrooxy)ethyl]-3-pyridinecarboxamide]
inhibition at 1 % ([1]; 1% DM, reduction in methane vs control, 8 hours at 39° C., average of two experiments): 100%

O=[N+]([O-])[O-].[Na+] [Na NO3, reference compound]
effect on methanogenesis (%) ([1]; comparative example, 0.5% DM, average of two experiments): 2% | effect on methanogenesis (%) ([1]; comparative example, 2% DM, average of two experiments): 23%

O=[N+]([O-])CCCO [reference compound]
inhibition at 0.1 % [1, 16]: 2%

COCCCO [reference compound]
inhibition at 0.1 % [1, 16]: 8%

CCOC(=O)CCO [reference compound]
inhibition at 0.1 % [1, 16]: 6%
